Source: article PMC3474888 (Pharmaceutical research, 2012)

Tested on: tubulin
Test: tubulin assembly inhibition, turbidimetry at […] nm
Format: biochemical, Bos taurus
Conditions: read-out: Inhibition of / Tubulin Assembly IC50±SD

IC50: 10 ± 0.6 µM
SMILES: COc1ccc(N(C)c2nc(C)nc3cc[nH]c23)cc1 [compound 3, N-(4-Methoxyphenyl)-N,2-dimethyl-5H-pyrrolo[3,2-d]pyrimidin-4-amine]
